Columns and labels:
[1] = test system: Papillary muscle of right ventricle; test: Inhibition of the cardiotonic activity of isoproterenol (developed tension) in isolated papillary muscle, as index of inhibiting Ca²⁺ overload into cells; parameters: species or system male Hartley-strain guinea-pigs; conditions: Drug concentration 10⁻³ M; inhibition of developed tension increased by isoproterenol
Procedure: For evaluation of the extent of inhibiting Ca²⁺ overload into cells, which is the pharmacological activity of the compound of the present invention, inhibition of the cardiotonic activity of isoproterenol by the compounds of the present invention was measured.
That is to say, since isoproterenol has been known to cause Ca²⁺ overload by excessive Ca²⁺ influx into cardiac muscle cells (Fleckenstein A., Janke J., Doring H., Leder O.; Recent advances in Studies on cardiac structure and metabolism, Myocardial Biology, Vol. 4, pp. 563 - 580 (1974)), the compound which inhibits the activity of isoproterenol can inhibit Ca²⁺ overload into cells.
Papillary muscle of right ventricle isolated from male Hartley-strain guinea-pigs (body weight: 250 to 350 g) was suspended in an organ bath filled with a nutrient solution (Krebs-Henseleit solution). The temperature of the nutrient solution was maintained at 32 °C, and a gas mixture of 95 % oxygen and 5 % carbon dioxide was aerated. The papillary muscle was applied with a resting tension of about 0.5 g, and stimulated with platinum electrodes by an electric pulse wave of a duration of 1 msec, a frequency of 1 Hz and a voltage higher by 15 % than the threshold value. The developed tension of the papillary muscle was measured through a tension transducer and recorded with a polygraph. After the specimen was stabilized for about 90 minutes, isoproterenol ([…]) was added into the organ bath so that developed tension could be increased by 100 % or more, and at the point when the maximum reaction was obtained, the compounds of the present invention were added into the organ bath, and % inhibition of the developed tension increased by isoproterenol was measured.

[2] = Acute toxicity, 50 % lethal dose (LD₅₀); conditions: mouse, in vivo, male mice
Procedure: Among compounds of the present invention, the compound No. 110 was tested for its acute toxicity.
Compound No. 110 was administered to male mice (18 - 25 g) for determination of 50 % lethal dose (LD₅₀). Two routes of administration tested were as follows: • 1) intravenous (into tail vein) administration in which calculation of LD₅₀ was according to up and down method and • 2) oral administration in which calculation of LD₅₀ was according to probit method. Compound No. 110 was diluted in physiological salt solution (0.9 % sodium chloride) for intravenous administration and distilled water for oral administration.

[3] = test system: isolated heart of rat; test: Protective effect on ischemic myocardium, Langendorff-perfused isolated heart (ischemia 90 minutes, then reperfusion); parameters: species or system Male Wister rats; conditions: for Developed tension (%): % of value in equilibration period, 30 minutes after reperfusion, Control 32.5; for Rise in resting tension: just before reperfusion, Control 0.72
Procedure: For the evaluation of the protective effect of ischemic myocardium, two parameters (rise in resting tension and decrease in developed tension), indices of myocardial injury, were measured in the myocardial ischemic model using isolated heart of rat.
It is reported that drugs which have the protective effect on ischemic myocardium attenuates the rise in resting tension and decrease in developed tension induced by Ca²⁺ overload into myocardial cells when the heart is exposed to ischemia. (Araki, H. & Lefer, AM.: Role of prostacyclin in the preservation of ischemic myocardial tissue in the perfused cat heart. Circ. Res., 47: 757-763, 1980).
Male Wister rats (250-350 g) were killed and their hearts excised. The hearts were then arranged for coronary perfusion with Krebs-Henseleit solution (37 °C, aerated with a gas mixture of 95 % O₂ - 5 % CO₂) according to the method of Langendorff. Tension development was monitored with a force displacement transducer attached via a cotton ligature to the ventricular apex with a resting tension of 1.5 g. After a equilibration period of 1 hour, myocardial ischemia was induced by lowering perfusion pressure from 80 cm H₂O to 12 cm H₂O for 90 minutes. The heart was then reperfused with the previous perfusion pressure of 80 cm H₂O. Rise in resting tension (g) just before reperfusion and developed tension (%) (% of value in equilibration period) 30 minutes after reperfusion were measured.

Cc1ccc(N2CCNCC2)c(S(=O)(=O)O)c1 [Compound No. 12, 2-(1-piperazinyl)-5-methylbenzenesulfonic acid]
Inhibition (%) [1]: 18.5%

CCCc1ccc(N2CCN(Cc3ccc(OC)c(OC)c3)CC2)c(S(=O)(=O)O)c1 [Compound No. 66]
Inhibition (%) [1]: 52.4%

CCCc1ccc(N2CCN(Cc3ccc(OC)c(OC)c3OC)CC2)c(S(=O)(=O)O)c1 [Compound No. 69, 2-[4-(2,3,4-trimethoxybenzyl)-1-piperazinyl]-5-n-propylbenzenesulfonic acid]
Inhibition (%) [1]: 21.4%

CCCc1ccc(N2CCNCC2)c(S(=O)(=O)O)c1.Cl [Compound No. 110, 2-(1-piperazinyl)-5-n-propylbenzenesulfonic acid hydrochloride]
LD50 ([2]; Intravenous administration (tail vein), up and down method): 63 mg/kg
LD50 ([2]; Oral administration, probit method): 2800 mg/kg
Developed tension (%) ([3]; Drug concentration 10⁻⁵ M): 77.0%
Rise in resting tension ([3]; Drug concentration 10⁻⁵ M): 0.09 g
Developed tension (%) ([3]; Drug concentration 10⁻⁶ M): 65.4%
Rise in resting tension ([3]; Drug concentration 10⁻⁶ M): 0.33 g
Developed tension (%) ([3]; Drug concentration 10⁻⁷ M): 32.2%
Rise in resting tension ([3]; Drug concentration 10⁻⁷ M): 0.48 g

CCCc1ccc(N2CCCN(C)CC2)c(S(=O)(=O)O)c1 [compound 89]
Developed tension (%) ([3]; Drug concentration 10⁻⁵ M): 58.4%
Rise in resting tension ([3]; Drug concentration 10⁻⁵ M): 0.25 g

O=S(=O)(O)c1cc(-c2ccccc2)ccc1N1CCNCC1 [compound 91]
Inhibition (%) [1]: 17.2%

O=S(=O)(O)c1cc(Cl)ccc1N1CCNCC1 [compound 93]
Inhibition (%) [1]: 28.0%

O=S(=O)(O)c1cc(Br)ccc1N1CCNCC1 [compound 94]
Inhibition (%) [1]: 18.5%

CC(C)c1ccc(N2CCNCC2)c(S(=O)(=O)O)c1 [compound 111]
Inhibition (%) [1]: 27.5%
